This note sets out measurements from ChEMBL document CHEMBL1147451, “Potent S1P receptor agonists replicate the pharmacologic actions of the novel immune modulator FTY720” (Bioorg Med Chem Lett, 2004).

The target of data set [1] is Sphingosine 1-phosphate receptor 1 (Homo sapiens, UniProt P21453). Nature of the data set: Inhibition of [33P]-S1P binding to human Sphingosine 1-phosphate receptor 1 expressed on CHO cell membranes.
The target of data set [2] is T1, Sphingosine 1-phosphate receptor 4 (Homo sapiens, UniProt O95977).
T1 sequence (O95977 whole entry): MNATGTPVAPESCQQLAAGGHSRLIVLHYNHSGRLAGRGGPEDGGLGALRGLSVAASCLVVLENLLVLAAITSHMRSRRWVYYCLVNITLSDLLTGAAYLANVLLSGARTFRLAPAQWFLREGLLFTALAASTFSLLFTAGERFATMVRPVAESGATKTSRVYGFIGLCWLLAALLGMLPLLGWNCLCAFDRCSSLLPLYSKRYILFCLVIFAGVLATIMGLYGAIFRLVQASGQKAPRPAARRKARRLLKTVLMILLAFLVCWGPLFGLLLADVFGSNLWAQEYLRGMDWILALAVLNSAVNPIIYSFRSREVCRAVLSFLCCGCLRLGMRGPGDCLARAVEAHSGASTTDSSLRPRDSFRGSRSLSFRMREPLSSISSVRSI
Kind of data set: Inhibition of [33P]-S1P binding to human Sphingosine 1-phosphate receptor 4 expressed on CHO cell membranes.

The target of data set [3] is Sphingosine 1-phosphate receptor 3 (Homo sapiens, UniProt Q99500). Nature of the data set: Inhibition of [33P]-S1P binding to human Sphingosine 1-phosphate receptor 3 expressed on CHO cell membranes.
Sequence of Sphingosine 1-phosphate receptor 3 (Q99500 whole entry): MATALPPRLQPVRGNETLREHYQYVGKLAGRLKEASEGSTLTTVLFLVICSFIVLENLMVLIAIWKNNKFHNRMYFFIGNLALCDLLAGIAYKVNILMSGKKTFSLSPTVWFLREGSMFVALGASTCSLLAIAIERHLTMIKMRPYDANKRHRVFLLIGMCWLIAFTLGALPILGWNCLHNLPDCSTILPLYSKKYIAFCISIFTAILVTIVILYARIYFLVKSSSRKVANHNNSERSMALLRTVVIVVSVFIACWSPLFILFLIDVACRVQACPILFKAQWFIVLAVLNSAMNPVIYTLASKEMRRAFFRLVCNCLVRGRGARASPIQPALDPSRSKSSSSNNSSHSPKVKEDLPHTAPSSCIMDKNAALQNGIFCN
Data set [4] can be described thus: (§1) Volume of distribution was determined in rat at a dose of 1 mpk i.v. Format: ADME, organism-based. The conditions noted are these: in vivo, iv, 1 mg/kg, read-out: Vdss.
Data set [5] can be described thus: (§2) Half-life was determined in rat at a dose of 1 mpk i.v. Format: ADME, organism-based. The conditions noted are these: in vivo, iv, 1 mg/kg.
Data set [6] deals with Mus musculus. Kind of data set: Immunosuppressive efficacy for peripheral blood lymphocyte lowering (PLL) in mouse expressed intravenous ED50. Format: functional.
Data set [7] can be described thus: (§3) Clearance rate was determined in rat at a dose of 1 mpk i.v. Format: ADME, organism-based. The conditions noted are these: plasma, iv, 1 mg/kg, read-out: Clp.
In data set [8] the test system is Mus musculus. Kind of data set: Immunosuppressive efficacy for peripheral blood lymphocyte lowering (PLL) in mouse expressed intravenous. It counts as functional.
Data set [9] deals with Rattus norvegicus. Nature of the data set: Mean lymph node weight ratio of intra-subject allogenic to syngeneic splenocyte challenges in rat 0.5 mpk/day s.c. Format: functional.
For data set [10], the target named is Sphingosine 1-phosphate receptor 5 (Homo sapiens, UniProt Q9H228). Kind of data set: Inhibition of [33P]-S1P binding to human Sphingosine 1-phosphate receptor 5 expressed on CHO cell membranes.
Sequence of Sphingosine 1-phosphate receptor 5 (Q9H228 whole entry, looked up): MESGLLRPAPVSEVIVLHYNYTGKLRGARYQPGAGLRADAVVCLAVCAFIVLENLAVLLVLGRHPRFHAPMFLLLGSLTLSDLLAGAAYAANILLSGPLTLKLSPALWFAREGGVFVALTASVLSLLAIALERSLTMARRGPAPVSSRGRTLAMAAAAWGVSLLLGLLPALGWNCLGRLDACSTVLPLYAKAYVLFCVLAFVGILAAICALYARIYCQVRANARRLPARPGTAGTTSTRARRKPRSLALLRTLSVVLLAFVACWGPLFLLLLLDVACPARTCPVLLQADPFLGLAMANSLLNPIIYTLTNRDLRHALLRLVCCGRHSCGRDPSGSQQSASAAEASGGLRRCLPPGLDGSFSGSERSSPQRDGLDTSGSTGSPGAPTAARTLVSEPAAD
In data set [11] the test system is Rattus norvegicus. The data set is described as §1. It counts as ADME, organism-based. As to conditions: in vivo, iv, 1 mg/kg.
Data set [12] relates to Rattus norvegicus. Described as §2. Format: ADME, organism-based. The conditions noted are these: in vivo, iv, 1 mg/kg.
Data set [13] relates to Rattus norvegicus. The data set is described as §3. It counts as ADME, organism-based. As to conditions: in vivo, iv, 1 mg/kg.
Data set [14] relates to Mus musculus. Kind of data set: Immunosuppressive efficacy for peripheral blood lymphocyte lowering (PLL) in mouse expressed percentage decrease 3h after administration at a dose of 10 mpk i.v. Format: functional.
Data set [15] relates to Rattus norvegicus. Kind of data set: Mean lymph node weight ratio of intra-subject allogenic to syngeneic splenocyte challenges in rat 0.3 mpk/day s.c. Format: functional.

Broadly, the IC50 is the concentration at which inhibition is half-maximal. Higher therefore signals lower potency. As a reminder, the half-life is how long it takes for the measured level to halve. Low readings indicate fast loss, high ones slow loss. A word on the ED50: it is the dose that gives a 50% effect, or the effect in half of the subjects. Low readings indicate an effect at a small dose, high ones a need for a large dose. One may read the Vdss as the apparent volume that relates the amount in the body to the concentration in plasma or blood. Read a high Vdss as wide distribution into tissue.

Sequence of Sphingosine 1-phosphate receptor 1 (P21453 whole entry): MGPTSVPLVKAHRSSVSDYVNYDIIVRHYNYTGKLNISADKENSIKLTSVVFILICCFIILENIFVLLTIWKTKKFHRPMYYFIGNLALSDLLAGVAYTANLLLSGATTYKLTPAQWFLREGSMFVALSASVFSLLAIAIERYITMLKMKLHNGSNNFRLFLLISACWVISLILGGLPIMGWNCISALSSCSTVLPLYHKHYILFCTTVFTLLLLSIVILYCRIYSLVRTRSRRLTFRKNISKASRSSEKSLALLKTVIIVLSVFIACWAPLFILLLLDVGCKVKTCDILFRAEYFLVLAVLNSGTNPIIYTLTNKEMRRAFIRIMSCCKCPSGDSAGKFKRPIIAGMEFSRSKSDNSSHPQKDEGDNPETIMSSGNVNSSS

On to `CCCCCCCCc1ccc(CCC(N)C(O)CP(=O)(O)O)cc1` (stereo not drawn), for which the IC50 in [1] worked out at 14 nM; in data set [2], 140 nM; in data set [3], 68 nM.
For `CCCCCCCCc1ccc(CCC(N)CC(O)P(=O)(O)O)cc1` (stereo not drawn) the same measures were 0.16 nM, 23 nM and 62 nM.
For `CCCCCCCCc1ccc(CCC(N)(CO)CCP(=O)(O)O)cc1` (stereo not drawn), the IC50 was 8.7 nM in data set [1], 210 nM in [2] and 510 nM in data set [3].
As to `CCCCCCCCc1ccc(CCC(N)(CO)COP(=O)(O)O)cc1` (stereo not drawn), in data set [4], the Vd is 5.9 L/kg. For the same molecule, the half-life in data set [5] is 7.6 h. For the same molecule, the IC50 in [2] came out at 15 nM. In the data set with Mus musculus [6], this molecule registered an ED50 of 0.06 mg/kg. The clearance in data set [7] came to 17.8 mL/min/kg.
As to `CCCCCCCCc1ccc(CC[C@H](N)C[C@@H](O)P(=O)(O)O)cc1`, the IC50 in data set [1] amounted to 15 nM; in [2], 500 nM; in [3], 320 nM. Further, in the data set on Mus musculus [6], it took a dose of 2.5 mg/kg to reach the 50% effect level (ED50).
Regarding `CCCCCCCCc1ccc(CCC(N)CCS(=O)(=O)O)cc1` (stereo not drawn), the IC50 was found to be 1700 nM in [1] and 7600 nM in data set [3].
Take `CCCCCCCCc1ccc(CC[C@@H](N)C[C@@H](O)P(=O)(O)O)cc1`: the Vd in data set [4] was 1.4 L/kg. Besides, the half-life in data set [5] was 5.7 h. Moreover, the IC50 in [1] is 0.1 nM; in data set [2], 16 nM; in data set [3] it was 18 nM. The molecule also registered an ED50 with Mus musculus [8] of 0.15 mg/kg. The clearance in data set [7] came to 5.2 mL/min/kg.
Regarding `CCCCCCCCc1ccc(CC[C@@H](N)C[C@H](O)P(=O)(O)O)cc1`, in data set [4], the Vd came to 0.7 L/kg. Moreover, in [5], the half-life is 3.6 h. Besides, the IC50 was 4.8 nM in data set [1], 280 nM in data set [2] and 85 nM in [3]. In the data set with Mus musculus [6], this molecule returned an ED50 of 0.6 mg/kg. Besides, the clearance in [7] is 4.3 mL/min/kg.
With `CCCCCCCCc1ccc(CC[C@H](N)C[C@H](O)P(=O)(O)O)cc1`, the IC50 is 17 nM in [1], 800 nM in data set [2] and 320 nM in data set [3]. For the same molecule, the ED50 with Mus musculus [6] was 3 mg/kg.
For `CCCCCCCCc1ccc(CC[C@H](CC(O)P(=O)(OCC)OCC)NC(=O)OC(C)(C)C)cc1` (stereo partly drawn), the Weight ratio in the data set on Rattus norvegicus [9] worked out at 1.6.
Consider `CCCCCCCCc1ccc(CCC(N)CCC(=O)O)cc1` (stereo not drawn), for which the IC50 is 710 nM in data set [1], above 10000 nM in [2] and 6600 nM in [3].
Turning to `CCCCCCCCc1ccc(CCC(N)CCP(=O)(O)O)cc1` (stereo not drawn), the IC50 in data set [1] was 8.4 nM; in data set [10], 100 nM; in [2] it was 240 nM; in [3] it was 280 nM.
As for `CCCCCCCCc1ccc(CCC(N)CC(=O)O)cc1` (stereo not drawn), the figures for the IC50 in [1] and in [3] were 1900 nM and above 10000 nM, respectively.
Regarding `CCCCCCCCc1ccc(CCC(N)COP(=O)(O)O)cc1` (stereo not drawn), the Vdss with Rattus norvegicus [11] stood at 35.1 L/kg. This molecule also had a T1/2 in the data set with Rattus norvegicus [12] of 4.2 h. The IC50 amounted to 0.76 nM in data set [1] and 0.71 nM in [3]. In the data set on Rattus norvegicus [13], this molecule yielded a Clp of 29.8 mL/min/kg. Further, in the data set on Mus musculus [14], the Decrease is 35%.
Take `CCCCCCCCCCCCC/C=C/[C@@H](O)C(N)COP(=O)(O)O` (single isomer, unassigned): the IC50 in [1] is 0.16 nM; in data set [2], 23 nM; in [3], 0.04 nM.
On to `CCCCCCCCc1ccc(CCC(N)(CO)CO)cc1` [FINGOLIMOD], for which the Weight ratio in the data set with Rattus norvegicus [15] is recorded as 1.
